Experimental data reported in US20050197350A1, “Novel quinoline, tetrahydroquinazoline, and pyrimidine derivatives and methods of treatment related to the use thereof” (TAISHO PHARMACEUTICAL CO., LTD., priority 2003, published 2005).

The molecules below were run on MCH receptors (assay: MCH receptor activity class (method not given)). Settings: MCH receptor; class by percent of control at 10^-7 M or IC50.
For CN(C)c1nc(N[C@H]2CC[C@@H](NC(=S)Nc3cc(Cl)cc(Cl)c3)CC2)nc2c1CCCC2 [compound 1981], the class was 3 (Class 3 The value of percent of control at 10^−7 M was more than 60% or the value of IC50 was more than 200 nM.).
For CN(C)c1nc(N[C@H]2CC[C@@H](NC(=S)Nc3cc(F)cc(F)c3)CC2)nc2c1CCCC2 [compound 1982], the class was 3 (Class 3 The value of percent of control at 10^−7 M was more than 60% or the value of IC50 was more than 200 nM.).
For CN(C)c1nc(N[C@H]2CC[C@@H](NC(=S)Nc3cccc(C#N)c3)CC2)nc2c1CCCC2 [compound 1983], the class was 3 (Class 3 The value of percent of control at 10^−7 M was more than 60% or the value of IC50 was more than 200 nM.).
For CN(C)c1nc(N[C@H]2CC[C@@H](NC(=S)Nc3cccc(F)c3)CC2)nc2c1CCCC2 [compound 1984], the class was 3 (Class 3 The value of percent of control at 10^−7 M was more than 60% or the value of IC50 was more than 200 nM.).
In the case of CN(C)c1nc(N[C@H]2CC[C@@H](NC(=S)Nc3cccc(I)c3)CC2)nc2c1CCCC2 [compound 1985], the class is reported as 3 (Class 3 The value of percent of control at 10^−7 M was more than 60% or the value of IC50 was more than 200 nM.).
With COc1cccc(NC(=S)N[C@H]2CC[C@@H](Nc3nc4c(c(N(C)C)n3)CCCC4)CC2)c1 [compound 1986] the class was 3 (Class 3 The value of percent of control at 10^−7 M was more than 60% or the value of IC50 was more than 200 nM.).
For CN(C)c1nc(N[C@H]2CC[C@@H](NC(=S)Nc3ccc(OC(F)F)cc3)CC2)nc2c1CCCC2 [compound 1987], the class was 3 (Class 3 The value of percent of control at 10^−7 M was more than 60% or the value of IC50 was more than 200 nM.).
In the case of CN(C)c1nc(N[C@H]2CC[C@@H](NC(=S)Nc3ccc(OC(F)(F)F)cc3)CC2)nc2c1CCCC2 [compound 1988], the class is reported as 3 (Class 3 The value of percent of control at 10^−7 M was more than 60% or the value of IC50 was more than 200 nM.).
With CN(C)c1nc(N[C@H]2CC[C@@H](NC(=S)Nc3ccc(C(F)(F)F)cc3)CC2)nc2c1CCCC2 [compound 1989] the class was 3 (Class 3 The value of percent of control at 10^−7 M was more than 60% or the value of IC50 was more than 200 nM.).
With CN(C)c1nc(N[C@H]2CC[C@@H](NC(=S)Nc3ccc(SC(F)(F)F)cc3)CC2)nc2c1CCCC2 [compound 1990] the class was 3 (Class 3 The value of percent of control at 10^−7 M was more than 60% or the value of IC50 was more than 200 nM.).
CN(C)c1nc(N[C@H]2CC[C@@H](NC(=S)Nc3ccc(Br)cc3F)CC2)nc2c1CCCC2 [compound 1991] was tested, and the class was 3 (Class 3 The value of percent of control at 10^−7 M was more than 60% or the value of IC50 was more than 200 nM.).
CN(C)c1nc(N[C@H]2CC[C@@H](NC(=S)Nc3ccc(Cl)c(C(F)(F)F)c3)CC2)nc2c1CCCC2 [compound 1992] was tested, and the class was 3 (Class 3 The value of percent of control at 10^−7 M was more than 60% or the value of IC50 was more than 200 nM.).
For CN(C)c1nc(N[C@H]2CC[C@@H](NC(=S)Nc3ccc(F)c(C(F)(F)F)c3)CC2)nc2c1CCCC2 [compound 1993], the class was 3 (Class 3 The value of percent of control at 10^−7 M was more than 60% or the value of IC50 was more than 200 nM.).
Cc1ccc(Cl)cc1NC(=S)N[C@H]1CC[C@@H](Nc2nc3c(c(N(C)C)n2)CCCC3)CC1 [compound 1994] was tested, and the class was 3 (Class 3 The value of percent of control at 10^−7 M was more than 60% or the value of IC50 was more than 200 nM.).
For CN(C)c1nc(N[C@H]2CC[C@@H](NC(=S)NC3CC4CCC3C4)CC2)nc2c1CCCC2 (some centres unmarked) [compound 1995], the class was 3 (Class 3 The value of percent of control at 10^−7 M was more than 60% or the value of IC50 was more than 200 nM.).
CN(C)c1nc(N[C@H]2CC[C@@H](NC(=S)Nc3ccc(NC(=O)OC(C)(C)C)cc3)CC2)nc2c1CCCC2 [compound 1996] was tested, and the class was 3 (Class 3 The value of percent of control at 10^−7 M was more than 60% or the value of IC50 was more than 200 nM.).
COc1ccc(CCNC(=S)N[C@H]2CC[C@@H](Nc3nc4c(c(N(C)C)n3)CCCC4)CC2)cc1OC [compound 1997] was tested, and the class was 3 (Class 3 The value of percent of control at 10^−7 M was more than 60% or the value of IC50 was more than 200 nM.).
